# Reference: ChEMBL document CHEMBL1201862, “PubChem BioAssay data set” (2004)
#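 In this assay, cells in 96-well plates receive the compound at five concentrations for 48 hours. Endpoints are linearly interpolated between the surrounding concentrations. At the GI50, growth is halved.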 Active and inactive are the calls of the source. Cut-off read from the data, not from the text of the source: active = GI50 up to about 1.1 µM and inactive = higher.
# Assays:
# Test in all cases: inhibition of tumour cell growth, NCI panel, 48 h
# SNB-19 = tested on: SNB-19
# ACHN = tested on: ACHN
# DU-145 = tested on: DU-145
# OVCAR-4 = tested on: OVCAR-4
# UACC-62 = tested on: UACC-62
# SR = tested on: SR
# NCI-H522 = tested on: NCI-H522
# UACC-257 = tested on: UACC-257
# HOP-92 = tested on: HOP-92
# HT-29 = tested on: HT-29
# SK-OV-3 = tested on: SK-OV-3
# RPMI-8226 = tested on: RPMI-8226
# IGROV-1 = tested on: IGROV-1
# MCF7 = tested on: MCF7
# PC-3 = tested on: PC-3
# Hs-578T = tested on: Hs-578T
# SK-MEL-2 = tested on: SK-MEL-2
# A549 = tested on: A549
# OVCAR-5 = tested on: OVCAR-5
# HCT-116 = tested on: HCT-116
# MDA-MB-435 = tested on: MDA-MB-435
# CCRF-CEM = tested on: CCRF-CEM
# SNB-75 = tested on: SNB-75
# A498 = tested on: A498
# NCI-H460 = tested on: NCI-H460
# NCI-H23 = tested on: NCI-H23
# OVCAR-8 = tested on: OVCAR-8
# SW-620 = tested on: SW-620
# K562 = tested on: K562
# Malme-3M = tested on: Malme-3M
# LOX IMVI = tested on: LOX IMVI
# MOLT-4 = tested on: MOLT-4
# NCI/ADR-RES = tested on: NCI/ADR-RES
# CAKI-1 = tested on: CAKI-1
# SF-295 = tested on: SF-295
# NCI-H226 = tested on: NCI-H226
# RXF 393 = tested on: RXF 393
# T47D = tested on: T47D
# OVCAR-3 = tested on: OVCAR-3
# SF-539 = tested on: SF-539
# EKVX = tested on: EKVX
# SN12C = tested on: SN12C
# MDA-N = tested on: MDA-N
# KM12 = tested on: KM12
# SF-268 = tested on: SF-268
# HL-60 = tested on: HL-60
# HOP-62 = tested on: HOP-62
# SK-MEL-28 = tested on: SK-MEL-28
# COLO 205 = tested on: COLO 205
# HCC 2998 = tested on: HCC 2998
# UO-31 = tested on: UO-31
# M14 = tested on: M14
# SK-MEL-5 = tested on: SK-MEL-5
# 786-0 = tested on: 786-0
# BT-549 = tested on: BT-549
# HCT-15 = tested on: HCT-15
# MDA-MB-231 = tested on: MDA-MB-231
# TK-10 = tested on: TK-10
# U-251 = tested on: U-251
smiles,measurement,setting,value
COc1cc(S(=O)(=O)Nc2ccc(-c3csc(N4C(=O)C(Cl)C4c4ccccc4O)n3)cc2)ccc1Cl (stereo not given),GI50,SNB-19,> 100 µM (inactive)
same,GI50,ACHN,76.7 µM (inactive)
same,GI50,DU-145,14.3 µM (inactive)
same,GI50,OVCAR-4,26.4 µM (inactive)
same,GI50,UACC-62,17 µM (inactive)
same,GI50,SR,4.82 µM (inactive)
same,GI50,NCI-H522,1.51 µM (inactive)
same,GI50,UACC-257,29.1 µM (inactive)
same,GI50,HOP-92,28 µM (inactive)
same,GI50,HT-29,36.8 µM (inactive)
same,GI50,SK-OV-3,> 100 µM (inactive)
same,GI50,RPMI-8226,23.2 µM (inactive)
same,GI50,IGROV-1,11.9 µM (inactive)
same,GI50,MCF7,21 µM (inactive)
same,GI50,PC-3,42.3 µM (inactive)
same,GI50,Hs-578T,0.748 µM (active)
same,GI50,SK-MEL-2,37.8 µM (inactive)
same,GI50,A549,> 100 µM (inactive)
same,GI50,OVCAR-5,47.8 µM (inactive)
same,GI50,HCT-116,30.3 µM (inactive)
same,GI50,MDA-MB-435,31.4 µM (inactive)
same,GI50,CCRF-CEM,2.73 µM (inactive)
same,GI50,SNB-75,62.7 µM (inactive)
same,GI50,A498,0.454 µM (active)
same,GI50,NCI-H460,47.5 µM (inactive)
same,GI50,NCI-H23,23.6 µM (inactive)
same,GI50,OVCAR-8,53.6 µM (inactive)
same,GI50,SW-620,32.3 µM (inactive)
same,GI50,K562,31 µM (inactive)
same,GI50,Malme-3M,24.1 µM (inactive)
same,GI50,LOX IMVI,1.49 µM (inactive)
same,GI50,MOLT-4,9.59 µM (inactive)
same,GI50,NCI/ADR-RES,> 100 µM (inactive)
same,GI50,CAKI-1,> 100 µM (inactive)
same,GI50,SF-295,> 100 µM (inactive)
same,GI50,NCI-H226,37.8 µM (inactive)
same,GI50,RXF 393,19.9 µM (inactive)
same,GI50,T47D,13.1 µM (inactive)
same,GI50,OVCAR-3,> 100 µM (inactive)
same,GI50,SF-539,30.5 µM (inactive)
same,GI50,EKVX,15.4 µM (inactive)
same,GI50,SN12C,33.1 µM (inactive)
same,GI50,MDA-N,27.5 µM (inactive)
same,GI50,KM12,33 µM (inactive)
same,GI50,SF-268,25.8 µM (inactive)
same,GI50,HL-60,21.8 µM (inactive)
same,GI50,HOP-62,> 100 µM (inactive)
same,GI50,SK-MEL-28,38.1 µM (inactive)
same,GI50,COLO 205,23.9 µM (inactive)
same,GI50,HCC 2998,15.1 µM (inactive)
same,GI50,UO-31,31.9 µM (inactive)
same,GI50,M14,50.9 µM (inactive)
same,GI50,SK-MEL-5,37.1 µM (inactive)
same,GI50,786-0,35.1 µM (inactive)
same,GI50,BT-549,29 µM (inactive)
same,GI50,HCT-15,> 100 µM
Cc1cc(/N=C/c2c(CO)cnc(C)c2O)c(/N=C/c2c(CO)cnc(C)c2O)cc1C.[Zn+2],GI50,SNB-19,> 100 µM (inactive)
same,GI50,ACHN,> 100 µM (inactive)
same,GI50,MDA-MB-231,> 100 µM (inactive)
same,GI50,OVCAR-4,> 100 µM (inactive)
same,GI50,UACC-62,> 100 µM (inactive)
same,GI50,NCI-H522,> 100 µM (inactive)
same,GI50,HOP-92,> 100 µM (inactive)
same,GI50,HT-29,> 100 µM (inactive)
same,GI50,IGROV-1,> 100 µM (inactive)
same,GI50,Hs-578T,> 100 µM (inactive)
same,GI50,SK-MEL-2,> 100 µM (inactive)
same,GI50,A549,> 100 µM (inactive)
same,GI50,HCT-116,> 100 µM (inactive)
same,GI50,SNB-75,> 100 µM (inactive)
same,GI50,A498,> 100 µM (inactive)
same,GI50,NCI-H460,> 100 µM (inactive)
same,GI50,OVCAR-8,> 100 µM (inactive)
same,GI50,LOX IMVI,> 100 µM (inactive)
same,GI50,TK-10,> 100 µM (inactive)
same,GI50,MOLT-4,> 100 µM (inactive)
same,GI50,NCI/ADR-RES,> 100 µM (inactive)
same,GI50,CAKI-1,> 100 µM (inactive)
same,GI50,SF-295,> 100 µM (inactive)
same,GI50,NCI-H226,> 100 µM (inactive)
same,GI50,SF-539,> 100 µM (inactive)
same,GI50,MDA-N,> 100 µM (inactive)
same,GI50,KM12,> 100 µM (inactive)
same,GI50,HOP-62,> 100 µM (inactive)
same,GI50,COLO 205,> 100 µM (inactive)
same,GI50,HCC 2998,> 100 µM (inactive)
same,GI50,UO-31,> 100 µM (inactive)
same,GI50,M14,> 100 µM (inactive)
same,GI50,SK-MEL-5,> 100 µM (inactive)
same,GI50,786-0,> 100 µM (inactive)
same,GI50,BT-549,> 100 µM (inactive)
N[C@]1(C(=O)O)C[C@@H]2C(Br)=NO[C@@H]2C1,GI50,SNB-19,> 100 µM (inactive)
same,GI50,ACHN,> 100 µM (inactive)
same,GI50,DU-145,> 100 µM (inactive)
same,GI50,MDA-MB-231,> 100 µM (inactive)
same,GI50,OVCAR-4,> 100 µM (inactive)
same,GI50,UACC-62,> 100 µM (inactive)
same,GI50,SR,78.9 µM (inactive)
same,GI50,NCI-H522,> 100 µM (inactive)
same,GI50,UACC-257,> 100 µM (inactive)
same,GI50,HOP-92,> 100 µM (inactive)
same,GI50,HT-29,> 100 µM (inactive)
same,GI50,SK-OV-3,> 100 µM (inactive)
same,GI50,RPMI-8226,> 100 µM (inactive)
same,GI50,MCF7,> 100 µM (inactive)
same,GI50,PC-3,> 100 µM (inactive)
same,GI50,Hs-578T,> 100 µM (inactive)
same,GI50,SK-MEL-2,> 100 µM (inactive)
same,GI50,A549,> 100 µM (inactive)
same,GI50,OVCAR-5,> 100 µM (inactive)
same,GI50,HCT-116,56 µM (inactive)
same,GI50,MDA-MB-435,> 100 µM (inactive)
same,GI50,SNB-75,> 100 µM (inactive)
same,GI50,A498,> 100 µM (inactive)
same,GI50,NCI-H460,55.7 µM (inactive)
same,GI50,NCI-H23,> 100 µM (inactive)
same,GI50,OVCAR-8,> 100 µM (inactive)
same,GI50,SW-620,> 100 µM (inactive)
same,GI50,Malme-3M,> 100 µM (inactive)
same,GI50,TK-10,> 100 µM (inactive)
same,GI50,MOLT-4,> 100 µM (inactive)
same,GI50,NCI/ADR-RES,> 100 µM (inactive)
same,GI50,CAKI-1,> 100 µM (inactive)
same,GI50,SF-295,> 100 µM (inactive)
same,GI50,NCI-H226,> 100 µM (inactive)
same,GI50,RXF 393,> 100 µM (inactive)
same,GI50,T47D,> 100 µM (inactive)
same,GI50,OVCAR-3,> 100 µM (inactive)
same,GI50,SF-539,> 100 µM (inactive)
same,GI50,U-251,> 100 µM (inactive)
same,GI50,EKVX,70.3 µM (inactive)
same,GI50,KM12,> 100 µM (inactive)
same,GI50,SF-268,> 100 µM (inactive)
same,GI50,HL-60,> 100 µM (inactive)
same,GI50,HOP-62,> 100 µM (inactive)
same,GI50,COLO 205,> 100 µM (inactive)
same,GI50,HCC 2998,> 100 µM (inactive)
same,GI50,UO-31,> 100 µM (inactive)
same,GI50,M14,> 100 µM (inactive)
same,GI50,SK-MEL-5,> 100 µM (inactive)
same,GI50,786-0,> 100 µM (inactive)
same,GI50,BT-549,> 100 µM (inactive)
same,GI50,HCT-15,76.9 µM
c1ccc2c(c1)OC(N1CCCC1)c1cnc(N3CCOCC3)nc1-2 (stereo not given),GI50,SNB-19,53 µM (inactive)
same,GI50,ACHN,38.2 µM (inactive)
same,GI50,DU-145,66.8 µM (inactive)
same,GI50,MDA-MB-231,45.1 µM (inactive)
same,GI50,OVCAR-4,41.6 µM (inactive)
same,GI50,UACC-62,43.1 µM (inactive)
same,GI50,SR,38.5 µM (inactive)
same,GI50,UACC-257,25.2 µM (inactive)
same,GI50,HOP-92,16.8 µM (inactive)
same,GI50,HT-29,53.6 µM (inactive)
same,GI50,SK-OV-3,35.2 µM (inactive)
same,GI50,RPMI-8226,25.7 µM (inactive)
same,GI50,MCF7,10.8 µM (inactive)
same,GI50,PC-3,41.3 µM (inactive)
same,GI50,Hs-578T,51.1 µM (inactive)
same,GI50,A549,57.7 µM (inactive)
same,GI50,OVCAR-5,22.5 µM (inactive)
same,GI50,HCT-116,> 100 µM (inactive)
same,GI50,MDA-MB-435,67 µM (inactive)
same,GI50,CCRF-CEM,31.9 µM (inactive)
same,GI50,SNB-75,17.1 µM (inactive)
same,GI50,A498,18.7 µM (inactive)
same,GI50,NCI-H460,53.3 µM (inactive)
same,GI50,NCI-H23,15.8 µM (inactive)
same,GI50,OVCAR-8,> 100 µM (inactive)
same,GI50,SW-620,91 µM (inactive)
same,GI50,K562,62.5 µM (inactive)
same,GI50,Malme-3M,21.9 µM (inactive)
same,GI50,LOX IMVI,54.3 µM (inactive)
same,GI50,TK-10,29.9 µM (inactive)
same,GI50,MOLT-4,32.9 µM (inactive)
same,GI50,CAKI-1,27.8 µM (inactive)
same,GI50,SF-295,30.4 µM (inactive)
same,GI50,NCI-H226,30.6 µM (inactive)
same,GI50,RXF 393,21.7 µM (inactive)
same,GI50,T47D,3.54 µM (inactive)
same,GI50,OVCAR-3,34.5 µM (inactive)
same,GI50,SF-539,> 100 µM (inactive)
same,GI50,U-251,> 100 µM (inactive)
same,GI50,EKVX,21.6 µM (inactive)
same,GI50,SN12C,32 µM (inactive)
same,GI50,KM12,> 100 µM (inactive)
same,GI50,SF-268,40.6 µM (inactive)
same,GI50,HL-60,74.1 µM (inactive)
same,GI50,HOP-62,57.5 µM (inactive)
same,GI50,SK-MEL-28,> 100 µM (inactive)
same,GI50,COLO 205,51.2 µM (inactive)
same,GI50,UO-31,19.3 µM (inactive)
same,GI50,M14,57.8 µM (inactive)
same,GI50,786-0,59.8 µM (inactive)
same,GI50,BT-549,17.1 µM (inactive)
same,GI50,HCT-15,45.4 µM
